Assay results published in patent US10870678B2, “Chiral peptides” (ARCUATE THERAPEUTICS, INC., priority 2016, dated 2020).
Read-outs that look alike come from different tables or passages of the source.

Test system: HepG2 human liver cancer cell line
Experiment: Functional Mitochondrial Toxicity Assay, XFe96 Seahorse (HepG2)
Type: cell-based
Protocol: The present Examples interrogate the two major energy producing pathways in the cell, mitochondrial respiration and glycolysis. HepG2 human liver cancer cell lines were dosed with test compounds and in real time the extracellular oxygen levels and pH were measured using the XFe96 flux analyser (Seahorse Biosciences). XFe Technology uses solid-state sensors to simultaneously measure both oxygen consumption rate (OCR) and extracellular acidification rate (ECAR) to determine effects on oxidative phosphorylation (OXPHOS) and glycolysis simultaneously. The cells were then subjected to sequential exposure to various inhibitors of mitochondrial functional to assess cellular metabolism.
A positive mitochondrial active compound is determined when there is a change in OCR or ECAR in the absence of cytotoxicity. Cytotoxicity was determined when both oxidative phosphorylation (OCR) and glycolysis (ECAR) were inhibited.
OCR is a measurement of oxygen content in extracellular media. Changes in OCR indicate effects on mitochondrial function, and can be bi-directional. A decrease is due to an inhibition of mitochondrial respiration, whilst an increase may indicate an uncoupler, in which respiration is not linked to energy production.
ECAR is the measurement of extracellular proton concentration (pH). An increase in signal means an increase in rate in number of pH ions (Thus decreasing pH value), and seen as an increase in glycolysis. Expressed as a fraction of basal control (rate prior to addition of compound).
Reverse capacity is the measured ability of cells to respond to an increase in energy demand, a reduction indicates mitochondrial dysfunction.
The Mitochondrial Stress Test is a series of sequential additions of compounds to the cells to assess a bioenergetics profile, and effects of test compounds on parameters such as proton leak and research capacity. This was used to assist in understanding potential mechanisms of mitochondrial toxicity. For example, it involves the addition of the follow compounds in this order:
Oligomycin is a known inhibitor of ATP synthase, and prevents the formation of ATP. This provides a measurement of the amount of oxygen consumption related to ATP production and ATP turnover. The addition of Oligomycin results in a decrease in OCR under normal conditions, and residual OCR is related to the natural proton leak.
Carbonyl cyanide 4-(trifluoromethoxy)phenylhydrazine (FCCP) is a protonphore, and is a known uncoupler of oxygen consumption from ATP production. This allows the maximum achievable transfer of electrons and oxygen consumption rate, and provides a measurement of reserve capacity.
Rotenone and antimycin A are known inhibitors of complex I and III of the electron transport chain, respectively. This inhibits electron transport completely, and any residual oxygen consumption is due to non-mitochondrial activity via oxygen requiring enzymes.

[1] = HepG2, read-out: Reserve Capacity AC50

Compound	Potential Mechanism (HepG2)	Reserve Capacity MEC (HepG2)	Reserve Capacity ↑↓ (HepG2)	AC50 (HepG2, read-out: ECAR AC50)	AC50 (HepG2, read-out: OCR AC50)	AC50 [1]	also measured
(L-Leu)(L-Orn)(L-Leu)(D-Orn)-NH2 [Peptide I-32]	Other	0.277 µM	↓	> 100 µM	> 100 µM	9.32 µM	
(L-Phe)(L-Lys)(L-Phe)(D-Arg)-NH2 [Peptide I-29]	Other	0.203 µM	↓	> 100 µM	> 100 µM	4.17 µM	
(D-Orn)(L-Tyr)(L-Orn)(L-Phe)-NH2 [Peptide I-5]	Other			> 100 µM	> 100 µM		Reserve Capacity MEC (HepG2, listed as I-5 (1)): 15.8 µM; Reserve Capacity ↑↓ (HepG2, listed as I-5 (1)): ↑; AC50 (HepG2, listed as I-5 (1), read-out: Reserve Capacity AC50): > 100 µM; Reserve Capacity MEC (HepG2, listed as I-5 (2)): <0.1 µM; Reserve Capacity ↑↓ (HepG2, listed as I-5 (2)): ↓; AC50 (HepG2, listed as I-5 (2), read-out: Reserve Capacity AC50): 0.954 µM
(D-Arg)(L-Leu)(L-Lys)(L-Phe)-NH2 [Peptide I-21]	Other	62.5 µM	↑	> 100 µM	> 100 µM	> 100 µM	
(D-Arg)(L-Tyr)(L-Orn)(L-Phe)-NH2 [Peptide I-3]	Other		↑	> 100 µM	> 100 µM	> 100 µM	Reserve Capacity MEC (HepG2, listed as I-3 (1)): 48.5 µM; Reserve Capacity MEC (HepG2, listed as I-3 (2)): 85.3 µM
(L-Phe)(L-Orn)(L-Leu)(D-Arg)-NH2 [Peptide I-30]	No effect			> 100 µM	> 100 µM	> 100 µM	
(D-Lys)(L-Leu)(L-Orn)(L-Leu)-NH2 [Peptide I-25]	No effect			> 100 µM	> 100 µM	> 100 µM	
(D-Arg)(L-Dmt)(L-Lys)(L-Tyr)-NH2 [Peptide I-9]	No effect			> 100 µM	> 100 µM	> 100 µM	
(D-Arg)(L-Leu)(L-Orn)(L-Phe)-NH2 [Peptide I-23]	Other	65.9 µM	↑	> 100 µM	> 100 µM	> 100 µM	
(D-Orn)(L-Leu)(L-Orn)(L-Leu)-NH2 [Peptide I-26]	No effect			> 100 µM	> 100 µM	> 100 µM	
(D-Orn)((L-Dmt)(L-Orn)(L-Phe)-NH2 [Peptide I-4]	No effect			> 100 µM	> 100 µM	> 100 µM	
(D-Phe)(D-Orn)(D-Leu)(L-Arg)-NH2 [Peptide I-35]	Other	<0.1 µM	↓	> 100 µM	> 100 µM	5.28 µM	
(L-Phe)(L-Orn)(L-Phe)(D-Orn)-NH2 [Peptide I-33]	No effect			> 100 µM	> 100 µM	> 100 µM	
(L-Phe)(L-Orn)(L-Dmt)(D-Orn)-NH2 [Peptide I-13]	Other			> 100 µM	> 100 µM		Reserve Capacity MEC (HepG2, listed as I-13 (1)): 13.4 µM; Reserve Capacity ↑↓ (HepG2, listed as I-13 (1)): ↑; AC50 (HepG2, listed as I-13 (1), read-out: Reserve Capacity AC50): 81.9 µM; Reserve Capacity MEC (HepG2, listed as I-13 (2)): 0.167 µM; Reserve Capacity ↑↓ (HepG2, listed as I-13 (2)): ↓; AC50 (HepG2, listed as I-13 (2), read-out: Reserve Capacity AC50): 4.72 µM
(L-Phe)(L-Orn)(L-Tyr)(D-Arg)-NH2 [Peptide I-14]	No effect			> 100 µM	> 100 µM	> 100 µM	
(D-Phe)(D-Orn)(D-Phe)(L-Orn)-NH2 [Peptide I-38]	No effect			> 100 µM	> 100 µM	> 100 µM	
(D-Arg)(L-Dmt)(L-Orn)(L-Tyr)-NH2 [Peptide I-10]	No effect			> 100 µM	> 100 µM	> 100 µM	

Compound	Potential Mechanism (HepG2)	Reserve Capacity MEC (HepG2)	Reserve Capacity ↑↓ (HepG2)	AC50 (HepG2, read-out: ECAR AC50)	AC50 (HepG2, read-out: OCR AC50)	AC50 [1]	also measured
(D-Phe)(D-Lys)(D-Leu)(L-Arg)-NH2 [Peptide I-34]	Other	<0.1 µM	↓	> 100 µM	> 100 µM	0.957 µM	
(D-Lys)(L-Dmt)(L-Orn)(L-Phe)-NH2 [Peptide I-7]	No effect			> 100 µM	> 100 µM	> 100 µM	
(D-Arg)(L-Dmt)(L-Orn)(L-Phe)-NH2 [Peptide I-2]	No effect			> 100 µM	> 100 µM	> 100 µM	
(L-Phe)(L-Lys)(L-Leu)(D-Arg)-NH2 [Peptide I-28]	Other	<0.1 µM	↓	> 100 µM	> 100 µM	1.28 µM	
(D-Orn)(L-Phe)(L-Orn)(L-Phe)-NH2 [Peptide I-27]	No effect			> 100 µM	> 100 µM	> 100 µM	
(D-Phe)(D-Orn)(D-Leu)(L-Orn)-NH2 [Peptide I-36]	Other	0.139 µM	↓	> 100 µM	> 100 µM	6.45 µM	
(L-Phe)(L-Orn)(L-Tyr)(D-Orn)-NH2 [Peptide I-15]	Other	64.7 µM	↑	> 100 µM	> 100 µM	> 100 µM	
(L-Phe)(L-Orn)(L-Dmt)(D-Arg)-NH2 [Peptide I-12]	No effect			> 100 µM	> 100 µM	> 100 µM	
(D-Lys)(L-Dmt)(L-Lys)(L-Phe)-NH2 [Peptide I-6]	Other	50.3 µM	↑	> 100 µM	> 100 µM	> 100 µM	
C=C(C)[C@H]1Cc2c(ccc3c2O[C@@H]2COc4cc(OC)c(OC)cc4[C@@H]2C3=O)O1 [Rotenone, reference compound]	ETC	<0.003 µM	↓				ECAR MEC (HepG2): 0.00325 µM; ECAR ↑↓ (HepG2): ↑; OCR MEC (HepG2): <0.003 µM; OCR ↑↓ (HepG2): ↓; AC50 (Homo sapiens, HepG2, read-out: ECAR AC50): 0.496 µM; AC50 (Homo sapiens, HepG2, read-out: OCR AC50): 0.0138 µM; AC50 (Homo sapiens, HepG2, read-out: Reserve Capacity AC50): 0.00349 µM
(D-Arg)(L-Leu)(L-Orn)(L-Leu)-NH2 [Peptide I-24]	Other	33.8 µM	↑	> 100 µM	> 100 µM	> 100 µM	
(D-Phe)(D-Orn)(D-Tyr)(L-Arg)-NH2 [Peptide I-16]	Other	84.5 µM	↑	> 100 µM	> 100 µM	> 100 µM	
(D-Arg)(L-Phe)(L-Lys)(L-Phe)-NH2 [Peptide I-22]	No effect	100 µM	↑	> 100 µM	> 100 µM	> 100 µM	
(L-Phe)(L-Orn)(L-Leu)(D-Orn)-NH2 [Peptide I-31]	No effect			> 100 µM	> 100 µM	> 100 µM	
(D-Leu)(D-Orn)(D-Leu)(L-Orn)-NH2 [Peptide I-37]	Other	<0.1 µM	↓	> 100 µM	> 100 µM	1.11 µM	OCR MEC (HepG2): 143 µM; OCR ↑↓ (HepG2): ↓
(D-Lys)(L-Tyr)(L-Orn)(L-Phe)-NH2 [Peptide I-8]	Other	79.7 µM	↑	> 100 µM	> 100 µM	> 100 µM	
